In patent US4556565A, “Sweetener composition, process for making the same, and comestibles comprising said sweetener composition” (priority 1983, dated 1985):
Where a SMILES comes first, the peptide text is derived from it.

How the values were obtained:
[1] = Cold water solubility test (time to dissolve); format: physicochemical; details: 15 g/100 ml of water, 10° C., magnetic stirrer (3 turns/sec)
Excerpt: A magnetic stirrer (3 turns/sec) was used to agitate each sample.

[2] = Residual APM in chewing gum on standing at 32° C.; format: physicochemical; details: calcium carbonate in the chewing gum base
bacteria in the mouth = details: cited from earlier work
[3] = cited from earlier work

COC(=O)[C@H](Cc1ccccc1)NC(=O)[C@@H](N)CC(=O)O [APM, L-aspartyl-L-phenylalanine methyl ester] (H-Asp-Phe-OMe)
Cold water solubility of sweetener compositions [1]: 900 s
Stability of APM in chewing gum containing calcium carbonate [2]: rapidly decomposed by calcium carbonate
Dental caries causing effect / bacterial action in the mouth (bacteria in the mouth): low dental caries causing effect
Dispersibility or solubility in water [3]: low dispersibility or solubility in water

OC[C@@H](O)[C@@H](O[C@H]1O[C@H](CO)[C@@H](O)[C@H](O)[C@H]1O)[C@H](O)[C@@H](O)CO [hydrogenated maltose]
Dental caries causing effect / bacterial action in the mouth (bacteria in the mouth): not subjected to the bacterial action in the mouth
